Results published in patent US11433031B2, “Method for manufacturing acetaminophen preparation” (NIPPON ZOKI PHARMACEUTICAL CO., LTD., priority 2016, dated 2022).
Where two headings read alike, the source gives them in different places.

Key:
[1] = Particle size distribution by laser-diffraction method (Mastersizer 2000, dry mode); assay type: physicochemical; conditions: dispersion air pressure 2 Bar, volume conversion
Description: The acetaminophen to be used in the manufacturing method of the present invention (also referred to as “the present acetaminophen”) has a particle size distribution such that d10 is generally 5 to 300 μm, preferably 10 to 200 μm, more preferably 15 to 100 μm, and d90 is generally 200 to 900 μm, preferably 250 to 800 μm, more preferably 300 to 700 μm. Although there are some differences in the particle size distribution among lots, the unpulverized acetaminophen generally has the above-specified particle size distribution. In contrast, although there are some differences in the particle size distribution of a pulverized product of acetaminophen among the manufacturers of the drug substance and production lots, the particle size distribution of a pulverized product of acetaminophen is generally such that the d10 is 3 to 10 μm and d90 is 100 to 250 μm, and therefore the particle diameters of the pulverized product of acetaminophen are smaller compared with those of the present acetaminophen. In the present invention, the particle size distribution is determined by a volume distribution evaluation employing a laser-diffraction scattering method (Mastersizer 2000: Malvern), and the terms “d10”, “d50”, and “d90” refer to particle diameters at a volume cumulative 10% point, a volume cumulative 50% point, and a volume cumulative 90% point, respectively, as observed from the smaller diameter side in the particle size distribution.
Each of unpulverized products of acetaminophen (lots A to D) and a pulverized product of acetaminophen (lot P) was subjected to a particle size distribution measurement using a particle measurement method (a dry mode measurement) by a laser-diffraction method. As a machine, a dry automated dispersion unit microtray (Mastersizer 2000, Malvern) was used, the dispersion compression air pressure was 2 Bar, and the analysis of particle size distribution was performed by a volume conversion method. The results of lots E, F, Q, and R are data which were obtained by another company using a different measurement apparatus under different measurement conditions from those employed in the test of the present invention. As shown in the results of Table 1, difference may sometimes occur depending on the measurement conditions and measurement apparatuses used in the measurement of particle size distribution.

[2] = data of another company, different apparatus and conditions; cited from earlier work

Compound | D10 [1] [μm] | D90 [1] [μm] | D10 [2] [μm] | D90 [2] [μm]
CC(=O)Nc1ccc(O)cc1 [Lot C, acetaminophen] | 26 | 419 |  | 
CC(=O)Nc1ccc(O)cc1 [Lot P, acetaminophen] | 3.7 | 166 |  | 
CC(=O)Nc1ccc(O)cc1 [Lot F, acetaminophen] |  |  | 220 | 663
CC(=O)Nc1ccc(O)cc1 [Lot R, acetaminophen] |  |  | 9.7 | 192
CC(=O)Nc1ccc(O)cc1 [Lot E, acetaminophen] |  |  | 93 | 559
CC(=O)Nc1ccc(O)cc1 [Lot Q, acetaminophen] |  |  | 5.8 | 104

Continued, in another order:

D10 [1] [μm] | D90 [1] [μm] | Compound | D10 [2] [μm] | D90 [2] [μm]
20 | 320 | CC(=O)Nc1ccc(O)cc1 [Lot A, acetaminophen] |  | 
30 | 551 | CC(=O)Nc1ccc(O)cc1 [Lot B, acetaminophen] |  | 
20 | 464 | CC(=O)Nc1ccc(O)cc1 [Lot D, acetaminophen] |  | 
